In patent US20250288576A1, “SPECIFIC TETRADENTATE COPPER CHELATORS AS ANTICANCER AGENTS” (Guangdong University of Technology, priority 2024, published 2025):
Blank lines part the entries; values can stand above or below the molecule they belong to.

Legend:
melanoma COLO-829 = assay: MTT cell viability assay, COLO-829; type: cell-based; settings: Homo sapiens, 48 h incubation, mean ± SD of at least three experiments
Method: (§1) The cytotoxicity of several compounds from the TDMQ series, especially TDMQ20, was evaluated on several human cancer cell lines. The clinically used anticancer drug 5-fluorouracil (5-FU) was used as comparator.
(§2) The targeted human cancer lines were 1) the metastatic melanoma A375, 2) the non-small cell lung adenocarcinoma A549, 3) the melanoma COLO-829, 4) the cervical cancer HeLa, 5) the hepatocellular carcinoma HepG2. The human immortalized keratinocyte cell line HaCaT was used as non-cancer reference cell line.
(§3) The MTT test was used to measure the cell viability. In this test, the applied colorless tetrazolium salt is reduced by mitochondrial succinate dehydrogenase, thus producing the violet formazan derivative that is quantified by UV-visible spectrometry at 570 nm.

HeLa cells [1] = assay: Colony-forming assay; type: cell-based, human; settings: 14th day after treatment
Method: (A) Representative images of colonies formed by HeLa cells at the 14th day after treatment with increasing concentrations of TDMQ20. (B) Quantitative analysis of this clonogenicity assay. **p<0.01, ****p<0.0001 vs. control. “Control” stands for untreated cells.
Colony-forming assay. The proliferation of HeLa cells exposed to various concentrations of TDMQ20 was evaluated at the 14th day after treatment.

[2] = test system: hepatocellular carcinoma HepG2; assay: MTT cell viability assay, HepG2; type: cell-based, human; settings: 48 h incubation, mean ± SD of at least three experiments
Method: as §1, §2, §3

[3] = test system: non-small cell lung adenocarcinoma A549; assay: MTT cell viability assay, A549; type: cell-based, human; settings: for IC50: MTT, 48 h incubation, mean ± SD of at least three experiments
Method: as §1, §2, §3

cervical cancer HeLa = assay: MTT cell viability assay, HeLa; type: cell-based, human; settings: 48 h incubation, mean ± SD of at least three experiments
Method: as §1, §2, §3

HeLa cells [4] = assay: Wound healing assay (scratch assay); type: cell-based, human; settings: 14.5 μM, 24 h
Method: (A) Representative images of wounds formed by HeLa cells after treatment with TDMQ20. (B) Quantitative analysis of the wound closure upon treatment by TDMQ20. ****p<0.0001 vs. control. “Control” stands for untreated cells. Scale bar: 250 μm.
Wound healing assay (or “scratch assay”). The migratory ability of Hela cells in the presence of TDMQ20 was evaluated using the wound healing assay monitored by optical microscopy. Measurement after 24 h of the width of the “wound” created in a cell monolayer quantify the migration rate of the cells to close the wound. This method mimics cell migration during wound healing in vivo. For cancer cells, cell migration is involved in several processes such as tumor invasion, neo-angiogenesis and metastasis (X. Wang et al., BMC Pharmacol. Toxicol. 2019, 20, 4).

HeLa cells [5] = assay: ROS production, DCF fluorescence (H2DCF-DA) flow cytometry; type: cell-based, human; settings: 48 h incubation
Method: FIG. 4. ROS production induced by TDMQ20 in HeLa cells, detected by DCF fluorescence after 48 h of incubation. ***p<0.001, ****p<0.0001.
The most straightforward technique for measuring the production of […] in cells is the use of the cell permeable fluorescent probe 2′,7′-dichlorodihydrofluorescein diacetate (H2DCF-DA). In the presence of ROS, predominantly H2O2, H2DCF is rapidly oxidized to 2′,7′-dichlorofluorescein (DCF) which is highly fluorescent, with excitation and emission wavelengths of 498 and 522 nm, respectively. The stained cells were analyzed by flow cytometry and analyzed by the FlowJo v.Xsoftware.

HeLa cells [6] = assay: Apoptosis, annexin V-FITC/PI flow cytometry; type: cell-based, human; settings: 48 h incubation
Method: FIG. 3. Pro-apoptotic activity of TDMQ20 on HeLa cells after 48 h of incubation. (A) Quantitative analysis of necrotic cells (quadrant Q1), early apoptotic cells (quadrant Q2), advanced apoptotic cells (quadrant Q3) and non-apoptotic cells (quadrant Q4), using annexin V/propidium iodide (PI) staining and detection by flow cytometry. “Control” stands for untreated cells. (B) Histograms represent the proportion of apoptotic cells (Q2+Q3) within the flow cytometry charts; “ns” stands for p>0.05, ****p<0.0001 vs. control.
The pro-apoptotic activity of TDMQ20 in Hela cells was evaluated after 48 h of incubation with the drug, using the annexin V-FITC/PI method (FITC and PI stand for fluoresceine-5-isothiocyanate and propidium iodide, respectively). After staining, live cells show little or no fluorescence (annexin V−/PI−), early apoptosis cells show green fluorescence (annexin V+/PI−), late apoptosis cells and necrosis cells show red and green fluorescence (annexin V+/PI+). Cells were detected by flow cytometry. IDEAS software was used for acquisition of data and FlowJo v. X software was used for analysis of data. The total proportion of apoptotic cells, including early apoptosis (quadrants Q2) or late apoptosis (quadrants Q3) or necrosis (quadrants Q1), accounted for 51%, 15% and 9% when HeLa cells were treated with TDMQ20 at the concentration of […], 7.3 μM and 3.7 μM, respectively. So, TDMQ20 induced the apoptosis of HeLa cells in a dose-dependent manner.

HeLa cells [7] = assay: Mitochondrial membrane potential, JC-1 staining flow cytometry; type: cell-based, human; settings: increasing concentration of TDMQ20, 48 h
Text: FIG. 5. (A) Red/green fluorescence of HeLa cells treated with various concentrations of TDMQ20, and stained by JC-1, as an indirect measure of mitochondrial membrane potential (ΔΨm). Detection by flow cytometry. (B) Histograms presenting data of panel A as mean values of three independent experiments±SD; ****p<0.0001 vs. control.
The higher is the ΔΨm, the more elevated is the red shift of the dye (more aggregates formed); vice-versa, the lower is the ΔΨm of the mitochondria and the lower is the red to green ratio of the fluorescent marker (few aggregates formed). Therefore, the ratio of red/green fluorescence intensities is significant of mitochondrial integrity and function, and mitochondrial depolarization is indicated by a reduction in the red to green fluorescence intensity ratio.
This method was used to evaluate the mitochondrial membrane potential in HeLa cells incubated with various concentrations of TDMQ20 for 48 h, using staining with JC-1, and quantification by flow cytometry treated with the FlowJo v. X software.

metastatic melanoma A375 = assay: MTT cell viability assay, A375; type: cell-based; settings: Homo sapiens, A-375, 48 h incubation, mean ± SD of at least three experiments
Method: as §1, §2, §3

[8] = test system: immortalized keratinocyte cell line HaCaT; assay: MTT cell viability assay, HaCaT (non-cancer reference); type: cell-based, human; settings: 48 h incubation, non-cancer cells, mean ± SD of at least three experiments
Method: as §1, §2, §3

IC50 (melanoma COLO-829): 40.2 ± 4.9 µM | IC50 [2]: 16.6 ± 4.7 µM | IC50 ([2]; Homo sapiens, HepG2, 48 h): 14 to 16 µM | IC50 ([3]; Homo sapiens, A549, 48 h): 14 to 16 µM | IC50 [3]: 16.2 ± 2.9 µM | IC50 (cervical cancer HeLa): 14.5 ± 0.8 µM | IC50 (cervical cancer HeLa; Homo sapiens, HeLa, 48 h): 14 to 16 µM | IC50 (metastatic melanoma A375): 38.1 ± 7 µM
SMILES: CN(C)CCNCCc1ccc2c(Cl)cc(Cl)c(N)c2n1 [TDMQ20]
HeLa cells in colony-forming assay (HeLa cells [1]; TDMQ20 = 12 μM): not detectable | Number of HeLa cells in cultures (colony-forming ability) (HeLa cells [1]; increasing drug concentration from 1.5 to 12 μM): drastically decreased | Cytotoxic activity relative to the reference drug 5-FU ([3]; lung adenocarcinoma A549 cells): four times higher | HeLa cell migration to close a wound (HeLa cells [4]): significantly inhibited | Fluorescence of DCF, % of the control cells (HeLa cells [5]; 3.7 μM): 125% | Fluorescence of DCF, % of the control cells (HeLa cells [5]; 7.3 μM): 138% | Fluorescence of DCF, % of the control cells (HeLa cells [5]; 14.5 μM): 150% | Total proportion of apoptotic cells (early, late apoptosis, necrosis) (HeLa cells [6]; 3.7 μM): 9% | Total proportion of apoptotic cells (early, late apoptosis, necrosis) (HeLa cells [6]; 7.3 μM): 15% | Total proportion of apoptotic cells (early, late apoptosis, necrosis) (HeLa cells [6]; 14.5 μM): 51% | JC-1 red/green fluorescence ratio (mitochondrial transmembrane potential ΔΨm) (HeLa cells [7]): drastic decrease | IC50 [8]: 41.1 ± 4.8 µM | IC50 ([8]; Homo sapiens, HaCaT, 48 h): 41 µM

IC50 (melanoma COLO-829): 48.7 ± 0.7 µM | IC50 ([2]; Homo sapiens, HepG2, 48 h): 46.7 ± 4.7 µM | IC50 ([3]; Homo sapiens, A549, 48 h): 72.6 ± 10 µM | IC50 (cervical cancer HeLa; Homo sapiens, HeLa, 48 h): 20.3 ± 4.6 µM | IC50 (metastatic melanoma A375): 68.5 ± 4 µM
SMILES: O=c1[nH]cc(F)c(=O)[nH]1 [5-FU, 5-fluorouracil, reference compound]
IC50 ([8]; Homo sapiens, HaCaT, 48 h): 30 µM
